The source of these data is patent US6126940A, “Hair-growing agent comprised of proanthocyanidins” (Kyowa Hakko Kogyo Co., Ltd., priority 1994, dated 2000).

For this series, the system named is dd mice. Kind of series: Acute Toxicity. In kind it is in vivo, mouse (male dd). To be noted: subcutaneous, 2000 mg/kg, five male dd mice.

In the case of `Oc1cc(O)c2c(c1)O[C@H](c1ccc(O)c(O)c1)[C@H](O)[C@H]2c1c(O)cc(O)c2c1O[C@H](c1ccc(O)c(O)c1)[C@H](O)C2` [Compound 2, epicatechin-(4β→8)-epicatechin], the mortality entry is reported as “none of the mice died”.
